Columns and labels:
[1] = molecular target: T1, HCV polymerase 1A (Δ21 NS5B) (Hepatitis C virus genotype 1a, UniProt P27958); assay: HCV Polymerase Inhibition Assay (1a); format: biochemical
T1 construct: 20 to 50nM Δ21 NS5B
Description: The reaction was initiated by the addition of 20μM CTP, 20μM ATP, 1μM ^3H-UTP (10mCi/umol), 5nM template RNA and 0.1 U/μl RNase inhibitor (RNasin, Promega), and allowed to proceed for 2 to 4h at room temperature. Reaction volume was 50μl. The reaction was terminated by the addition of 1 volume of 4mM spermine in 10mM Tris-Cl pH 8.0, 1mM EDTA. After incubation for at least 15 min at room temperature, the precipitated RNA was captured by filtering through a GF/B filter (Millipore) in a 96 well format. The filter plate was washed three times with 200μl each of 2mM spermine, 10mM Tris-Cl pH 8.0, lmM EDTA, and 2 times with ethanol. After air-drying, 30μl of Microscint 20 scintillation cocktail (Packard) was added to each well, and the retained cpm were determined by scintillation counting. […] Retained cpm were plotted vs. inhibitor concentration and fit to equation 1 using non-linear regression (ref. 1) to obtain the IC50 values: Retained cpm=A[sqrt{(IC50+It−Et)^2+4*IC50*Et}−([…])]
Ref. Morrison, J. F. and S. R. Stone. […] Approaches to the study and analysis of the inhibition of enzymes by slow- and tight-binding inhibitors. Comments Mol. Cell. Biophys.
(§1) The sequence of the template RNA used was: 5′-[…]-3′

[2] = molecular target: T2, HCV polymerase 1B (Δ21 NS5B) (Hepatitis C virus genotype 1b, UniProt P26663); assay: biochemical
T2 construct: 20 to 50nM Δ21 NS5B
Description: Either two-fold serial dilutions (fractional inhibition assay) or a narrower range of dilutions spanning the IC50 of the inhibitor (tight binding assay) of the inhibitors were incubated with 20mM Tris-Cl pH 7.4, 2 mM MnCl2, 1 mM dithiothreitol, 1 mM ethylene diamine tetraacetic acid (EDTA), 60 to 125μM GTP and 20 to 50nM Δ21 NS5B (HCV Strain 1B (BK, Genbank accession number M58335, or H77, Genbank accession number AF011751)) for 15min at room temperature. The reaction was initiated by the addition of 20μM CTP, 20μM ATP, 1μM ^3H-UTP (10mCi/umol), 5nM template RNA and 0.1 U/μl RNase inhibitor (RNasin, Promega), and allowed to proceed for 2 to 4h at room temperature. Reaction volume was 50μl. The reaction was terminated by the addition of 1 volume of 4mM spermine in 10mM Tris-Cl pH 8.0, 1mM EDTA. After incubation for at least 15 min at room temperature, the precipitated RNA was captured by filtering through a GF/B filter (Millipore) in a 96 well format. The filter plate was washed three times with 200μl each of 2mM spermine, 10mM Tris-Cl pH 8.0, lmM EDTA, and 2 times with ethanol. After air-drying, 30μl of Microscint 20 scintillation cocktail (Packard) was added to each well, and the retained cpm were determined by scintillation counting. […] Retained cpm were plotted vs. inhibitor concentration and fit to equation 1 using non-linear regression (ref. 1) to obtain the IC50 values: Retained cpm=A[sqrt{(IC50+It−Et)^2+4*IC50*Et}−([…])]
Ref. Morrison, J. F. and S. R. Stone. 1985. Approaches to the study and analysis of the inhibition of enzymes by slow- and tight-binding inhibitors. Comments Mol. Cell. Biophys. 2: 347-368.
as §1

[3] = system: genotype 1a-H77 subgenomic replicon cell line; assay: microbe, parasite or virus in culture; format: cell-based, HCV; settings: Hepatitis C virus, 72 h, read-out: EC50 1a
[4] = system: genotype 1b-Con1 subgenomic replicon cell line; assay: microbe, parasite or virus in culture; format: cell-based, HCV; settings: Hepatitis C virus, 72 h, read-out: EC50 1b

T1 sequence (P27958 2421-2990, stated change not applied): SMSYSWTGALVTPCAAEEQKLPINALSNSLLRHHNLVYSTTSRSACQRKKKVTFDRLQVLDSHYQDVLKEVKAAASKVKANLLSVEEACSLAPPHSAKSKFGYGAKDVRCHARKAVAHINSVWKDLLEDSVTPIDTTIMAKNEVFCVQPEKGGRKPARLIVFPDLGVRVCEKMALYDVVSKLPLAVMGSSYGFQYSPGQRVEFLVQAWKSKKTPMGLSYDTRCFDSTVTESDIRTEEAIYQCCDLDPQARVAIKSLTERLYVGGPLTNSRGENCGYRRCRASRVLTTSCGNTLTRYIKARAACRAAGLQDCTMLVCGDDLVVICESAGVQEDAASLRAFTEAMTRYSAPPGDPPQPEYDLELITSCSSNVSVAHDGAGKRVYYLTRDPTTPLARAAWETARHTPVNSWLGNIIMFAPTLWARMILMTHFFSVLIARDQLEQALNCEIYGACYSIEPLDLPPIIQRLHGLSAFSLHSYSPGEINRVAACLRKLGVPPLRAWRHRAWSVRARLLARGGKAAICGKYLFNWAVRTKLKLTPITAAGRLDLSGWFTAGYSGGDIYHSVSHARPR
T2 sequence (P26663 2420-2989, stated change not applied): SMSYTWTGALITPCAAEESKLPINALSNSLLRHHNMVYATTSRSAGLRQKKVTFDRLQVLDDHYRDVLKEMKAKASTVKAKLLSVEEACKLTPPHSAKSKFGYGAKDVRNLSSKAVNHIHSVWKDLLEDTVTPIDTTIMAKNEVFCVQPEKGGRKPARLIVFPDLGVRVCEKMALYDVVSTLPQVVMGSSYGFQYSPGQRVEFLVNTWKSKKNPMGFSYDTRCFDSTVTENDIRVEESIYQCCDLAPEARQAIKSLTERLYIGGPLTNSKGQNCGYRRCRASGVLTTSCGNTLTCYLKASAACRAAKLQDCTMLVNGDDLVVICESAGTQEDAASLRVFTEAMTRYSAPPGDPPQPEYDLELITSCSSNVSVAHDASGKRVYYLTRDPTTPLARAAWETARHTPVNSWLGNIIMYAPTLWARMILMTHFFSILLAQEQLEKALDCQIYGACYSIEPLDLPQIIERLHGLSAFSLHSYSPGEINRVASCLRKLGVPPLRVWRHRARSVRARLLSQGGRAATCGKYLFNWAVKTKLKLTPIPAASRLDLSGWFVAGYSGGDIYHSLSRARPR

SMILES	IC50 [1] [nM]	IC50 [2] [nM]	EC50 [3] [nM]	EC50 [4] [nM]
COc1c(-c2ccc3c(c2)CCN3S(C)(=O)=O)cc(-n2ccc(=O)[nH]c2=O)cc1C(C)(C)C [IB-L0-2.32, 1-(3-tert-butyl-4-methoxy-5-(1-(methylsulfonyl)indolin-5-yl)phenyl)pyrimidine-2,4(1H,3H)-dione]	10 to 100	10 to 100	100 to 1000	10 to 100
COc1c(-c2ccc3c(c2)CC=C3C(C)(C)NS(C)(=O)=O)cc(-n2ccc(=O)[nH]c2=O)cc1C(C)(C)C [IB-L0-2.41, N-(2-(6-(3-tert-butyl-5-(2,4-dioxo-3,4-dihydropyrimidin-1(2H)-yl)-2-methoxyphenyl)-1H-inden-3-yl)propan-2-yl)methanesulfonamide]	100 to 1000	100 to 1000	100 to 1000	100 to 1000
COc1c(-c2ccc3c(c2)/C(=N/NS(C)(=O)=O)CC3)cc(-n2ccc(=O)[nH]c2=O)cc1-c1ccco1 [IB-L0-2.55, (E)-N′-(6-(5-(2,4-dioxo-3,4-dihydropyrimidin-1(2H)-yl)-3-(furan-2-yl)-2-methoxyphenyl)-2,3-dihydro-1H-inden-1-ylidene)methanesulfonohydrazide]	< 10	10 to 100	10 to 100	< 10
COc1c(-c2ccc3c(C)coc3c2)cc(-n2ccc(=O)[nH]c2=O)cc1C(C)(C)C [IB-L0-2.42, 1-(3-tert-butyl-4-methoxy-5-(3-methylbenzofuran-6-yl)phenyl)-pyrimidine-2,4(1H,3H)-dione]	100 to 1000	100 to 1000	100 to 1000	100 to 1000
COc1c(-c2ccc3c(c2)CC[C@]3(F)CNS(C)(=O)=O)cc(-n2ccc(=O)[nH]c2=O)cc1C(C)(C)C [IB-L0-2.10, (R)-N-((5-(3-tert-butyl-5-(2,4-dioxo-3,4-dihydropyrimidin-1 (2H)-yl)-2-methoxyphenyl)-1-fluoro-2,3-dihydro-1H-inden-1-yl)methyl)methanesulfonamide]	< 10	10 to 100	< 10	< 10
COc1c(NS(C)(=O)=O)cc(-n2ccc(=O)[nH]c2=O)cc1-c1ccc2cc(NS(C)(=O)=O)ccc2c1 [IB-L0-2.75, N-(5-(2,4-dioxo-3,4-dihydropyrimidin-1(2H)-yl)-2-methoxy-3-(6-(methylsulfonamido)naphthalen-2-yl)phenyl)methanesulfonamide]	100 to 1000	> 1000	> 1000	> 1000
COc1c(-c2ccoc2)cc(-n2ccc(=O)[nH]c2=O)cc1-c1ccc2cc(NS(C)(=O)=O)ccc2c1 [IB-L0-2.64, N-(6-(5-(2,4-dioxo-3,4-dihydropyrimidin-1(2H)-yl)-3-(furan-3-yl)-2-methoxyphenyl)naphthalen-2-yl)methanesulfonamide]	10 to 100	10 to 100	100 to 1000	< 10
COc1c(-c2nc3cc(NS(C)(=O)=O)ccc3o2)cc(N2CCC(=O)NC2=O)cc1C(C)(C)C [IA-L0-2.8, N-(2-(3-tert-butyl-5-(2,4-dioxotetrahydropyrimidin-1(2H)-yl)-2-methoxyphenyl)benzo[d]oxazol-5-yl)methanesulfonamide]	10 to 100	10 to 100	100 to 1000	10 to 100
COc1ccc2cc(-c3cc(-n4ccc(=O)[nH]c4=O)cc(C(C)(C)C)c3OC)ccc2c1 [IB-L0-2.2, 1-(3-tert-butyl-4-methoxy-5-(6-methoxynaphthalen-2-yl)phenyl)pyrimidine-2,4(1H,3H)-dione]	100 to 1000	100 to 1000	> 1000	> 1000
COc1c(-c2ccc3c(c2)CNC3=O)cc(-n2ccc(=O)[nH]c2=O)cc1C(C)(C)C [IB-L0-2.30, 1-(3-tert-butyl-4-methoxy-5-(1-oxoisoindolin-5-yl)phenyl)-pyrimidine-2,4(1H,3H)-dione]	10 to 100	10 to 100	100 to 1000	10 to 100
COc1c(-c2nc3cc(NS(C)(=O)=O)ccc3[nH]2)cc(N2CCC(=O)NC2=O)cc1C(C)(C)C [IA-L0-2.1, N-(2-(3-tert-butyl-5-(2,4-dioxotetrahydropyrimidin-1(2H)-yl)-2-methoxyphenyl)-1H-benzo[d]imidazol-5-yl)methanesulfonamide]	100 to 1000	100 to 1000	> 1000	> 1000
COc1c(-c2ccc3cc(NS(C)(=O)=O)ccc3c2)cc(-n2ccc(=O)[nH]c2=O)cc1C(F)(F)F [IB-L0-2.56, N-(6-(5-(2,4-dioxo-3,4-dihydropyrimidin-1(2H)-yl)-2-methoxy-3-(trifluoromethyl)phenyl)naphthalen-2-yl)methanesulfonamide]	< 10	10 to 100	100 to 1000	< 10
COc1c(-c2ccc3c(c2)/C(=N/NS(C)(=O)=O)CC3)cc(-n2ccc(=O)[nH]c2=O)cc1-c1cccs1 [IB-L0-2.51, (E)-N′-(6-(5-(2,4-dioxo-3,4-dihydropyrimidin-1(2H)-yl)-2-methoxy-3-(thiophen-2-yl)phenyl)-2,3-dihydro-1H-inden-1-ylidene)methanesulfonohydrazide]	< 10	10 to 100	10 to 100	< 10
COc1c(-c2ccc3c(c2)CC[C@@]3(F)CNS(C)(=O)=O)cc(-n2ccc(=O)[nH]c2=O)cc1C(C)(C)C [IB-L0-2.20, (S)-N-((5-(3-tert-butyl-5-(2,4-dioxo-3,4-dihydropyrimidin-1(2H)-yl)-2-methoxyphenyl)-1-fluoro-2,3-dihydro-1H-inden-1-yl)methyl)methanesulfonamide]	< 10	10 to 100	100 to 1000	10 to 100
COc1c(-c2cccc(Cl)c2)cc(-n2ccc(=O)[nH]c2=O)cc1-c1ccc2cc(NS(C)(=O)=O)ccc2c1 [IB-L0-2.74, N-(6-(3′-chloro-5-(2,4-dioxo-3,4-dihydropyrimidin-1(2H)-yl)-2-methoxybiphenyl-3-yl)naphthalen-2-yl)methanesulfonamide]	100 to 1000	100 to 1000	> 1000	100 to 1000
COc1c(-c2ccc3cc(NS(C)(=O)=O)ccc3c2)cc(-n2ccc(=O)[nH]c2=O)cc1S(C)(=O)=O [IB-L0-2.68, N-(6-(5-(2,4-dioxo-3,4-dihydropyrimidin-1(2H)-yl)-2-methoxy-3-(methylsulfonyl)phenyl)naphthalen-2-yl)methanesulfonamide]	10 to 100	10 to 100	> 1000	100 to 1000
COc1c(-c2nc3ccc([N+](=O)[O-])cc3o2)cc(N2CCC(=O)NC2=O)cc1C(C)(C)C [IA-L0-2.6, 1-(3-tert-butyl-4-methoxy-5-(6-nitrobenzo[d]oxazol-2-yl)phenyl) dihydropyrimidine-2,4(1H,3H)-dione]	100 to 1000	100 to 1000	> 1000	> 1000
COc1c(-c2ccc3cc(NS(C)(=O)=O)ccc3c2)cc(-n2ccc(=O)[nH]c2=O)cc1-c1ccc(C)s1 [IB-L0-2.73, N-(6-(5-(2,4-dioxo-3,4-dihydropyrimidin-1(2H)-yl)-2-methoxy-3-(5-methylthiophen-2-yl)phenyl)naphthalen-2-yl)methanesulfonamide]	100 to 1000	100 to 1000	100 to 1000	100 to 1000
COc1c(-c2nc3ccc(NS(C)(=O)=O)cc3o2)cc(N2CCC(=O)NC2=O)cc1C(C)(C)C [IA-L0-2.5, N-(2-(3-tert-butyl-5-(2,4-dioxotetrahydropyrimidin-1(2H)-yl)-2-methoxyphenyl)benzo[d]oxazol-6-yl)methanesulfonamide]	100 to 1000	100 to 1000	> 1000	> 1000
